{
  "source": "ChEMBL document CHEMBL6092226",
  "about": "“Tilting the Scales toward EGFR Mutant Selectivity: Expanding the Scope of Bivalent \"Type V\" Kinase Inhibitors” (J Med Chem, 2024)",
  "key": {"BaF3 [1]": {"system": "BaF3", "format": "functional, cell-based", "conditions": "Mus musculus, BaF3, 72 h"}, "[2]": {"molecular_target": "Epidermal growth factor receptor (Homo sapiens, UniProt P00533)", "sequence (P00533 whole entry, the tested form may be a part)": "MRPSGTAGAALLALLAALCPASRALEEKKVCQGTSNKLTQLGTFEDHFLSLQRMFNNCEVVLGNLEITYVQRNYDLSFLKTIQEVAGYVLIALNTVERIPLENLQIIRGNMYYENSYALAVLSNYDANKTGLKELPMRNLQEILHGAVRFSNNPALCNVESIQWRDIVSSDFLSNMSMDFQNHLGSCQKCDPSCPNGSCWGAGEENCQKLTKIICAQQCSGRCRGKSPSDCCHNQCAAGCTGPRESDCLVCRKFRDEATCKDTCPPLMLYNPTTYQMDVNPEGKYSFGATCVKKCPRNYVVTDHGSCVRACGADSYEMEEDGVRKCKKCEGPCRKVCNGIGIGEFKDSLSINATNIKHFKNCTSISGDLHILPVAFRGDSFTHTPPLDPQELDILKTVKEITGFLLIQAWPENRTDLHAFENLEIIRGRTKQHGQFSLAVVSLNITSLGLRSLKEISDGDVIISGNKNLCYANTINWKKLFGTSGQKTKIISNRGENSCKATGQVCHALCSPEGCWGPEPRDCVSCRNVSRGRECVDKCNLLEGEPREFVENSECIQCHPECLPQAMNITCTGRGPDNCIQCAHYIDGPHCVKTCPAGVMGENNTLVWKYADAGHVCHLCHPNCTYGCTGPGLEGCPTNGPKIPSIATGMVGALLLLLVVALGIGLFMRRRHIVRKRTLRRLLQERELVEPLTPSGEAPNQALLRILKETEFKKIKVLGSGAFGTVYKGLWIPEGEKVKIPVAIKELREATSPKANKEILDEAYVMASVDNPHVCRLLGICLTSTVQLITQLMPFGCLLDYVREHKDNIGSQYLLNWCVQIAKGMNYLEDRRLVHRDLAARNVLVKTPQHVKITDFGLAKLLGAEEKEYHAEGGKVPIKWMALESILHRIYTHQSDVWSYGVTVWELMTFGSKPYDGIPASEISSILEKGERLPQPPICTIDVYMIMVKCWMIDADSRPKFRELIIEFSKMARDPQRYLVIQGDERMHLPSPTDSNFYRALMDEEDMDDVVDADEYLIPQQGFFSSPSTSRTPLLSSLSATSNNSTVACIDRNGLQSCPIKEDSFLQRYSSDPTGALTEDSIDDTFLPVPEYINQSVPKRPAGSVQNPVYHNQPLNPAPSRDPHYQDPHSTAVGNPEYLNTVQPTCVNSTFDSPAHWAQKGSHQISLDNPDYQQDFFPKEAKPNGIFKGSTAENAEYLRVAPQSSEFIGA", "assay": "Time-dependent irreversible inhibition of N-terminal GST-tagged wildtype human EGFR cytoplasmic domain (669 to 1210 residues) extracted from Sf21 insect cells assessed as apparent inactivation constant (Ki) incubated for 240 mins in presence of ATP by fluorescence based analysis", "conditions": "read-out: Ki(app)"}, "[3]": {"assay": "Drug metabolism in pooled male human liver microsomes assessed as thioether oxidation mediated metabolite formation at 150 uM measured after 2 hrs by LC-MS analysis", "format": "ADME, Microsome"}, "BaF3 [4]": {"system": "BaF3", "assay": "cells", "conditions": "Mus musculus, BaF3, 72 h"}, "[5]": {"molecular_target": "Tyrosine-protein kinase BTK (Homo sapiens) (UniProt Q06187)", "sequence (Q06187 whole entry)": "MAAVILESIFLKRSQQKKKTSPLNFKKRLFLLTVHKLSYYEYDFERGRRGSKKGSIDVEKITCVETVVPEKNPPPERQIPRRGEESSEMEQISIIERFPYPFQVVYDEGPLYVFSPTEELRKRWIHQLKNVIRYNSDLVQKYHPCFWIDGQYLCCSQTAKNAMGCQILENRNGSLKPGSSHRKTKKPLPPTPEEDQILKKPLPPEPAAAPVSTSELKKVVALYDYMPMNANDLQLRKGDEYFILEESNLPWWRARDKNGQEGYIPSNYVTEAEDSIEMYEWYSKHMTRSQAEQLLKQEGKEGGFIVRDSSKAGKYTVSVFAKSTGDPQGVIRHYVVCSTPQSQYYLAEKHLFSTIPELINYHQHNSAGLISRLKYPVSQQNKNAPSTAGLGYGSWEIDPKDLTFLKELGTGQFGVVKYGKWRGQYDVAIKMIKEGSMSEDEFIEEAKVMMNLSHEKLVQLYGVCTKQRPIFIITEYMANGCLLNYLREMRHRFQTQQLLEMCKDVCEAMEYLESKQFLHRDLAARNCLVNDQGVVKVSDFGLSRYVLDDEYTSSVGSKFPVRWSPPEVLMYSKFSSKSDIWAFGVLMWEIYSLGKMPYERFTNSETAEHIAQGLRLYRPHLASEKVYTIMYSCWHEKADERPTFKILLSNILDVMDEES", "assay": "Inhibition of BTK (unknown origin) at 1 uM by Eurofins DiscoverX KINOMEscan analysis"}, "[6]": {"molecular_target": "T1, Tyrosine-protein kinase JAK3 (Homo sapiens) (UniProt P52333)", "T1 sequence (whole entry)": "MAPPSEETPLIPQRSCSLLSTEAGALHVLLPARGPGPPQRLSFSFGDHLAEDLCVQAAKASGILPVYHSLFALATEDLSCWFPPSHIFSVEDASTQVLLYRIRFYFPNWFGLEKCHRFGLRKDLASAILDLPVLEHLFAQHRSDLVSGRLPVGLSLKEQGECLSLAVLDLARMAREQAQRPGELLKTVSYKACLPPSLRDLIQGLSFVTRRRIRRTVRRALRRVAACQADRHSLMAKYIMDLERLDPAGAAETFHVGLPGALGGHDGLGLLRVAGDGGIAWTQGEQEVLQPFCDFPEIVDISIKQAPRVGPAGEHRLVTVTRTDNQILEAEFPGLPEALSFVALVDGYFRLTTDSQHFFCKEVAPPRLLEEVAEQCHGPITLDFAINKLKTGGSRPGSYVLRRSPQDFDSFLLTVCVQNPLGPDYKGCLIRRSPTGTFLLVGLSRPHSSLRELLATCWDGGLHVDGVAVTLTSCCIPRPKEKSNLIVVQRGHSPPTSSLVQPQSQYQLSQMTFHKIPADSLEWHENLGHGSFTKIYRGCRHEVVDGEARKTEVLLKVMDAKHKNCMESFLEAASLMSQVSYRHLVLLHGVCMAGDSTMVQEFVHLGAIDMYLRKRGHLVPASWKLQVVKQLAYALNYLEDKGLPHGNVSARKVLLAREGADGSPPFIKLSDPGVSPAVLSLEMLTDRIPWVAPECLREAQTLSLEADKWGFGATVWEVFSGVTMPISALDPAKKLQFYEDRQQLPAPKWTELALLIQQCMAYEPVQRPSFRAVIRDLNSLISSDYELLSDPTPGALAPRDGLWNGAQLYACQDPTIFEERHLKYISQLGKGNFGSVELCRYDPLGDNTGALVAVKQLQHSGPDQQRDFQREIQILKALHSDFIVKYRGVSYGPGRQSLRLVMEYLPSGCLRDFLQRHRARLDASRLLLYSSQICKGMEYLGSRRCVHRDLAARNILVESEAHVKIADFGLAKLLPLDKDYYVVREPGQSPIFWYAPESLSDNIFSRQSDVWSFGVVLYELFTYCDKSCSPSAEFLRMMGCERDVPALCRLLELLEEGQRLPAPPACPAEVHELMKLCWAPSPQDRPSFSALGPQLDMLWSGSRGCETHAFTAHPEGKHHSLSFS", "assay": "Inhibition of JAK3 (unknown origin) at 1 uM by Eurofins DiscoverX KINOMEscan analysis"}, "[7]": {"molecular_target": "Tyrosine-protein kinase Blk (Homo sapiens) (UniProt P51451)", "sequence (P51451 2-505 limits assumed)": "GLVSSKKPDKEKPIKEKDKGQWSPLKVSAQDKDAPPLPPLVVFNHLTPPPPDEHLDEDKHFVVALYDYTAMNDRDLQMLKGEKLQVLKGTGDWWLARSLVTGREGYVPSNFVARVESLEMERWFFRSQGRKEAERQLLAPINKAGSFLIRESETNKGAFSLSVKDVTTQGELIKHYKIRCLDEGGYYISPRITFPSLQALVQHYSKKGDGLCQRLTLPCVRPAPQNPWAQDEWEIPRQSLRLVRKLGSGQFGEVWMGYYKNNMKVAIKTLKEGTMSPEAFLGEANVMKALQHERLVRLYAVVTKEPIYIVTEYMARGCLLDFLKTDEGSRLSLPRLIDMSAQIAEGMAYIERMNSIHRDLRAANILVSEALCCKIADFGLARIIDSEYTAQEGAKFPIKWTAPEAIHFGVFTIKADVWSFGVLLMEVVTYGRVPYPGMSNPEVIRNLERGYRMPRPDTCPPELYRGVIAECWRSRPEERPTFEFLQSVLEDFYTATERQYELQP", "assay": "Inhibition of BLK (unknown origin) at 1 uM by Eurofins DiscoverX KINOMEscan analysis"}, "BaF3 [8]": {"system": "BaF3", "assay": "Antiproliferative activity against mouse BaF3 cells harboring EGFR exon 19del mutant incubated for 72 hrs by MTT assay", "format": "functional, cell-based", "conditions": "BaF3, 72 h"}, "[9]": {"molecular_target": "Myosin-IIIa (Homo sapiens) (UniProt Q8NEV4)", "sequence (Q8NEV4 whole entry)": "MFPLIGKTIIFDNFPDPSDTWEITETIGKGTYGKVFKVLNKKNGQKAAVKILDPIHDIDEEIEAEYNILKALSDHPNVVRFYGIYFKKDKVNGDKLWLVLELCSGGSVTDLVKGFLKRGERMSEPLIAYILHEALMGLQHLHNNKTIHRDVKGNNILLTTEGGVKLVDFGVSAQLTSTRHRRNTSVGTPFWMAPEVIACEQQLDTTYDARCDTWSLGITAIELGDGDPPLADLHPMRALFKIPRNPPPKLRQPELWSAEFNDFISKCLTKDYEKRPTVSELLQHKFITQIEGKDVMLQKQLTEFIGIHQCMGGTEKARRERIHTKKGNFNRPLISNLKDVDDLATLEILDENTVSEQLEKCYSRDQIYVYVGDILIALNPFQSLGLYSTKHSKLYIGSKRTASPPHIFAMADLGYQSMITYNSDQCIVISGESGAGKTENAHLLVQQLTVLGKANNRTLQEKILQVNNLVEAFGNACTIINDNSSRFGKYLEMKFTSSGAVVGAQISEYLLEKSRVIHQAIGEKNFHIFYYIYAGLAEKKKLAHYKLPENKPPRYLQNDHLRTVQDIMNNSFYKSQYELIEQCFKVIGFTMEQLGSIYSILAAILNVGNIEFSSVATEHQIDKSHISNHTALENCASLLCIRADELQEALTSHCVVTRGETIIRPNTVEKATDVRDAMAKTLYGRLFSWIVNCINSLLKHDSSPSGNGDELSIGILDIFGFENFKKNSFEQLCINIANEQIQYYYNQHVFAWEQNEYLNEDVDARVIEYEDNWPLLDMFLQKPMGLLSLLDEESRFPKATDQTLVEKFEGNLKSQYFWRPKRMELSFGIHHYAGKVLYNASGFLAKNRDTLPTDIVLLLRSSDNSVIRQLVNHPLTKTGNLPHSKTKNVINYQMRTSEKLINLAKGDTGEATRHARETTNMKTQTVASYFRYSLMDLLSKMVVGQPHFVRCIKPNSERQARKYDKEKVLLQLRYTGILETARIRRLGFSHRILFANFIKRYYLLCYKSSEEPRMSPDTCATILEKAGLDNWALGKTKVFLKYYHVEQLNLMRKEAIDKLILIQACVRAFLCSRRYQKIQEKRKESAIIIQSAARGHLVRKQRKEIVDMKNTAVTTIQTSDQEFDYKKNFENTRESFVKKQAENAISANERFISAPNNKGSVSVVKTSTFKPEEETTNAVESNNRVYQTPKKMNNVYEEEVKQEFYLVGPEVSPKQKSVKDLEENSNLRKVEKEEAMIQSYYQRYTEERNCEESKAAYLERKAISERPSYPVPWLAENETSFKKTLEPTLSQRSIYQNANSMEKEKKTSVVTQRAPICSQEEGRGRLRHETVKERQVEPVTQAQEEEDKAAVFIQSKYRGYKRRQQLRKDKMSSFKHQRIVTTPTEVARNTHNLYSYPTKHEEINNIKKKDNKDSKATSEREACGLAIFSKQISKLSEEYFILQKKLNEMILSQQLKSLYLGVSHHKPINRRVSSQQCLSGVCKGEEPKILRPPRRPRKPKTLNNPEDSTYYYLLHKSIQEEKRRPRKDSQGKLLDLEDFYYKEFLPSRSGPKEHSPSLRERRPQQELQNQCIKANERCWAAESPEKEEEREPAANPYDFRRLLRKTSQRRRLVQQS", "assay": "Inhibition of MYO3A (unknown origin) at 1 uM by Eurofins DiscoverX KINOMEscan analysis relative to control"}, "[10]": {"molecular_target": "T2, Tyrosine-protein kinase Tec (Homo sapiens) (UniProt P42680)", "T2 sequence (whole entry)": "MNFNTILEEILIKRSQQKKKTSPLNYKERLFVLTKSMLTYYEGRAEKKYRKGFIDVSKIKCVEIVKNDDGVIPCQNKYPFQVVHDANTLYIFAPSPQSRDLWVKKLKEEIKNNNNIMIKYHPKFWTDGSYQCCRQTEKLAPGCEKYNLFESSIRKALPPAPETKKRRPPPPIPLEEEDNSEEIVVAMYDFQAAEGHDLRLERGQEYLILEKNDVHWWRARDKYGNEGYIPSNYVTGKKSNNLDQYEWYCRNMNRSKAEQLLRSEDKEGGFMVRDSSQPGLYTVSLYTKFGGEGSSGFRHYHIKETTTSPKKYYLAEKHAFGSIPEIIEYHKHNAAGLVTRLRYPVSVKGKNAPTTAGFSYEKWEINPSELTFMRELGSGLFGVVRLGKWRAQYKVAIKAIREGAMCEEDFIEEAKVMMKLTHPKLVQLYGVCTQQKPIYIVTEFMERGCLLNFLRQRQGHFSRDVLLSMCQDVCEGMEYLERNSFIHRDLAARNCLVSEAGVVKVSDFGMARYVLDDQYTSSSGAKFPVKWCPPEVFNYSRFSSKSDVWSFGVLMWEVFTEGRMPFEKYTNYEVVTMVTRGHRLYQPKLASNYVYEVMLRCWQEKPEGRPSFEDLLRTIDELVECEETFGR", "assay": "Inhibition of TEC (unknown origin) at 1 uM by Eurofins DiscoverX KINOMEscan analysis"}, "Homo sapiens": {"species": "Homo sapiens", "assay": "Inhibition of DMPK2 (unknown origin) at 1 uM by Eurofins DiscoverX KINOMEscan analysis relative to control"}, "cells": {"assay": "cells", "conditions": "Homo sapiens, NCI-H1975, 72 h"}, "[11]": {"molecular_target": "T3, Tyrosine-protein kinase TXK (Homo sapiens) (UniProt P42681)", "T3 sequence (whole entry)": "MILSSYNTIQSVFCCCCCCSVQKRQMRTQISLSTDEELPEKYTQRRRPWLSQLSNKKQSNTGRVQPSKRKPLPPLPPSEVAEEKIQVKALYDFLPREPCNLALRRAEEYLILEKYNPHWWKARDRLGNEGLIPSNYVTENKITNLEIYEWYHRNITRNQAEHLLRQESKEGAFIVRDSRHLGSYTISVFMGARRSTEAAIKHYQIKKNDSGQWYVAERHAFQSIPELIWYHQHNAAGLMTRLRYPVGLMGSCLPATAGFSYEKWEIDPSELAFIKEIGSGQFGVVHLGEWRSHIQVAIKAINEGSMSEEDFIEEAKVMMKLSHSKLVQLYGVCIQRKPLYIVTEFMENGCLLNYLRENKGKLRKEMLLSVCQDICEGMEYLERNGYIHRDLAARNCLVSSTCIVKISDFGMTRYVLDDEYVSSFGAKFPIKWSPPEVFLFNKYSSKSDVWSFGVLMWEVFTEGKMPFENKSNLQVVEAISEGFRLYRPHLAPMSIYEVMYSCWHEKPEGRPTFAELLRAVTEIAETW", "assay": "Inhibition of TXK (unknown origin) at 1 uM by Eurofins DiscoverX KINOMEscan analysis"}},
  "note": "Calls of active or inactive are those of the source. The calls are words filed in the database; no cut-off is given here.",
  "data": [
    {"compound": "C=CC(=O)Nc1ccc(OC)c(Nc2cc(-c3[nH]c(SC)nc3-c3cccc(NC(=O)c4cccc(O)c4CN4Cc5ccccc5C4=O)c3)ccn2)c1", "values": [
      {"measurement": "EC50", "setting": "BaF3 [1]", "value": 3900, "unit": "nM"},
      {"measurement": "Ki", "setting": "[2]", "value": 1320, "unit": "nM"},
      {"measurement": "Drug metabolism", "setting": "[3]", "value": "metabolite_detected"},
      {"measurement": "EC50", "setting": "BaF3 [4]", "value": 430, "unit": "nM"},
      {"measurement": "inhibition", "setting": "[5]", "value": "inactive"},
      {"measurement": "inhibition", "setting": "[6]", "value": "inactive"},
      {"measurement": "inhibition", "setting": "[7]", "value": "inactive"},
      {"measurement": "EC50", "setting": "BaF3 [8]", "value": 950, "unit": "nM"},
      {"measurement": "inhibition", "setting": "[9]", "value": "< 10", "unit": "%"},
      {"measurement": "inhibition", "setting": "[10]", "value": "inactive"},
      {"measurement": "inhibition", "setting": "Homo sapiens", "value": "< 10", "unit": "%"},
      {"measurement": "EC50", "setting": "cells", "value": 330, "unit": "nM"},
      {"measurement": "inhibition", "setting": "[11]", "value": "inactive"}
    ]}
  ]
}
